# Measurements as given in US20240108641A1, “COMPOSITIONS FOR ORAL ADMINISTRATION OF ZOLEDRONIC ACID OR RELATED COMPOUNDS FOR TREATING DISEASE” (ANTECIP BIOVENTURES II LLC, priority 2012, published 2024).
# Experiments:
# [1] = in vivo; conditions: dog, po, 150 mg
# Procedure: Tablets were manufactured containing either pure zoledronic acid or the disodium salt of zoledronic acid (disodium zoledronate tetrahydrate). Both types of tablets contained 50 mg of zoledronic acid equivalent per tablet. Identical excipients were used in both types of tablets, with amounts adjusted to account for the difference in molecular weights between the acid and the disodium salt.
# Beagle dogs were orally administered tablets containing 150 mg zoledronic acid equivalent either in the form of disodium zoledronate (Group 1) or pure zoledronic acid (Group 2). Each animal was given three 50 mg equivalent tablets (150 mg total), which were administered together. The animal's oral cavity was wetted with water before placing the tablets on the back of the animal's tongue. Animals were fasted before and after dosing. Animals were 6 to 9 months of age and weighed 6 to 10 kg on the day of dosing. There were three dogs per group.
# Serial blood samples were collected from each animal by venipuncture of the jugular vein at various points after dosing for measurement of plasma concentrations of zoledronic acid. Blood samples were collected into chilled tubes containing K2EDTA as the anticoagulant. Samples were then centrifuged at approximately 3000 rpm at +4° C. for 10 minutes for plasma derivation. Plasma concentrations of zoledronic acid were measured using an LC/MS/MS method.
# [2] = format: physicochemical; conditions: pH 5.5
# Procedure: One gram of the test compound was measured into a beaker. […] The procedure was continued until complete dissolution was achieved. […] The procedure was performed for each compound.
compound,measurement,setting,value
O.O.O.O.O=P([O-])(O)C(O)(Cn1ccnc1)P(=O)([O-])O.[Na+].[Na+] [disodium zoledronate tetrahydrate],average AUC0-∞,[1],4073 ng·h/mL
same,aqueous solubility relative to zoledronic acid,[2],approximately 50 times
